SMILES strings stand for the structures.

The nature of the series: Powder testing of final blends for compression (flow and compression properties). In kind it is physicochemical. The protocol:
The powder properties of the final blends for compression were evaluated. During compression, excellent powder flow through the hopper was visually observed. The following Table presents the results of powder testing.

With `CC12CC3CC(C)(C1)CC(N)(C3)C2` [memantine, 1-amino-3,5-dimethyladamantane], the “flow and compression properties (in words)” value is “poor flow properties”. Besides, the “Flowability Index” value (powder) amounted to 23.5.

The values are drawn from US8039009B2, “Modified release formulations of memantine oral dosage forms” (priority 2004, dated 2011).
